Measurements reported in patent publication US20020045566A1, “Selective maxi-K potassium channel openers functional under conditions of high intracellular calcium concentration, methods and uses thereof” (priority 2000, published 2002).

Assays:
cortical infarct volume [1] = assay: permanent MCA occlusion in SHR rat; assay type: in vivo, spontaneously hypertensive rats (SHR); details: administered 2 hours following occlusion onset, doses neuroprotective at earlier time points
[2] = target: T1, human brain maxi-K channel α-subunit (hSlo) (Homo sapiens, UniProt Q12791); assay: whole-cell patch-clamp of hSlo-mediated outward currents in transfected HEK-293 cells; assay type: cell-based; details: for effect on hSlo-mediated current amplitudes: BMS-A at 1 μM
T1 construct: expressed in transfected cells; host or cells: HEK-293, stably transfected (pcDNA3, G418 selection)
Protocol: HEK-293 cells were transfected with 1-2 μg of pcDNA3 expression plasmid containing hSlo α-subunit cDNA (S. I. Dworetzky et al., 1994, Brain Res. Mol. Brain Res., 27:189-193) using lipofectamine (Gibco) according to the manufacturer's protocol. Cells stably transfected with hSlo were selected in medium supplemented with 0.5 mg/ml Geneticin (G418; Sigma). Transfected HEK-293 cells were grown in Minimum Essential Medium (MEM; Gibco) supplemented with 10% fetal calf serum and G418 at 37° C. in a humidified atmosphere of 5% CO2 and 95% […]. Cells were plated on fibronectin-coated glass cover slips in 35 mm culture dishes.
Outward K^+-mediated currents were examined using standard whole-cell patch-clamp techniques (P. O. Hamill et al., 1981, Pflugers Arch., 391:85-100). Records were filtered at 2 kHz prior to digitization at 10 or 20 kHz. The bathing solution contained the following components: NaCl, 145 mM; KCl, 3 mM; CaCl2, 2.5 mM; MgCl2 1 mM; HEPES, 10 mM; pH 7.4. The recording pipettes were pulled from thick-walled borosilicate glass (2-4 Mω in bathing solution), fire polished and filled with a solution containing: KCl 140 mM; MOPS, 20 mM; EGTA, 1.0 mM; pH 7.2, with CaCl2 adjusted to produce the required [Ca^2+]free (determined using the EQCAL program (Biosoft, Cambridge) incorporating the methods of A. Fabiato and F. Fabiato, 1995, J. Physiol., Paris. 75:463-505.
Stimulus generation and data acquisition were controlled by either an Axopatch 200 amplifier or an EPC 9 amplifier, and the Pulse program suite. Data were stored and analyzed off-line. The cell holding potential was −100 mV for experiments with 2.5 μM [Ca^2+]i, and −80 or […] for the remaining Ca^2+ concentrations (1 μM, 250 nM and 50 nM). A series of 10 mV depolarizing voltage steps (100 to 200 ms) appropriate to the [Ca^2+]i was applied to evoke a family of outward currents. Series resistance was ≦6Mω before 80% compensation. Currents were measured at steady state near the end of the voltage pulse.
Using the whole-cell voltage-clamp technique (R. Penner, 1995, “A Practical Guide to Patch Clamping”; In: Single Channel Recording, 2nd Edition, (Eds. B. Sakmann and E. Neher), Plenum Press, New York, pp. 3-30), hSlo-mediated outward currents were recorded with pipettes containing different concentrations of Ca^2+ (i.e., [Ca^2+]free=50 nM, 1 μM or 2.5 μM). Clamped cells were exposed to 5 μM of the fluoro-oxindole opener compound BMS-204352, or the chloro-oxindole opener compound BMS-225113, as described in Examples 1.
For outside-out and whole cell patch analyses, the solutions used are normal extracellular Na^+ solution containing (in mM): NaCl, 145; KCl, 3; CaCl2, 2.5; MgCl2, 1; HEPES, 10; ±glucose, 10; pH 7.4. Intracellular and extracellular medium for inside-out patches, or pipette solution for whole-cell patch, comprise (in mM): KCl, 140; MOPS, 20; EGTA, 1.0; pH 7.2 CaCl2 adjusted to produce the required [Ca^2+]free (determined using the EQCAL program; Biosoft, Cambridge). The cell holding potential for whole-cell recordings is −80 or −60 mV and depolarizing voltage steps appropriate to the internal Ca^2+ concentration are applied (at high intracellular Ca^2+ seals become unstable at higher clamp voltages, and are stable at lower voltages for shorter periods).
This example describes experiments that were conducted to determine the effects of intracellular Ca^2+ concentration ([Ca^2+]i) and the use of the BMS-A compound (see U.S. Pat. No. 5,869,509, Example 82), versus a known benzimidazolone compound called NS-1619 [D. Strbaek et al., 1996, Neuropharmacology, 35:903-914 and M. McKay et al., 1997, J. Neurophysiology, 71:1873], on whole-cell currents in HEK-293 cells genetically engineered to express a human brain hSlo α-subunit. For these experiments, the cell holding potential was either −80 or −100 mV and a series of 10 mV depolarizing voltage steps appropriate to the [Ca^2+]i, was applied. […]

cortical infarct volume [3] = assay: permanent MCA occlusion in SHR rat, MRI; assay type: in vivo, spontaneously hypertensive rats (SHR); details: 0.3 mg/kg bolus IV 2 hours after occlusion onset; at 5.5 and 24 hours after occlusion
[4] = tested on: voltage-dependent potassium channels (Kv1.3, Kv1.5, Kv2.1); assay: ion channel specificity, Kv currents (electrophysiology); assay type: cell-based
Protocol: (§1) To determine the specificity of the effects of the opener compounds, including BMS-204352, on maxi-K potassium channels, the compounds were tested against a representative sample of cloned and native ion channels expressed in Xenopus oocytes and clonal cell lines and were assayed using standard electrophysiological techniques readily known to and practiced by those having skill in the art. These included voltage-dependent potassium channels (Kv1.3, Kv1.5, Kv2.1), Ca^2+-activated chloride (Cl^−) channels (native oocyte channels), the cystic fibrosis transmembrane conductance regulator Cl^− channel (CFTR) and Ca^2+ currents (native GH3 cell Ca^2+ current).

[5] = tested on: native GH3 cell Ca^2+ current; assay: ion channel specificity, native Ca2+ currents; assay type: cell-based; details: at 1 and 10 μM; similar reductions due to current rundown in control cells
Protocol: as §1

[6] = brain penetrance and pharmacokinetics after IV administration in rat; assay type: in vivo
Excerpt: The ischemic penumbra is an area of low vascular perfusion. For a neuroprotective agent to reach ischemic neurons at therapeutic doses following the onset of a stroke, it should enter the brain at very high levels.

σ1 = target: T2, σ1 (Homo sapiens, UniProt Q99720); assay: [3H](+)pentazocine binding, PanLabs screen
T2 construct: PanLabs (contract screen)
Excerpt: (§2) BMS-204352 was also examined against a binding screen of over 50 receptors and enzyme systems (PanLabs ProfilingScreen® and DiscoveryScreen®). These systems include representatives of most G-protein coupled receptor families, ligand-gated ion channel families, as well as some voltage-gated ion channel binding sites such as the dihydropyridine receptor of L-type Ca^2+ channels. […] The significance of modest inhibition of σ1 ligand binding is unknown.

[7] = genotoxicity in vitro and in vivo
Protocol: (§3) BMS-204352 has an encouraging preclinical safety profile. […] In single- and multiple-dose studies unaffected by drug at doses at least 3×higher than the highest cytotoxic target organ changes following IV administration for 1 month at doses up to 10 mg/kg/day (rats) and for 10 days at doses up to 20 mg/kg/day (dogs).

[8] = cardiovascular safety in rats; assay type: in vivo; details: doses at least 3× higher than the highest neuroprotective dose of 1 mg/kg IV
Protocol: as §3

cortical infarct volume [9] = assay: PUM,PIC,TCC model of acute stroke in Wistar normotensive rat; assay type: in vivo; details: administered 2 hours post-occlusion
Protocol: Permanent focal occlusion of the proximal middle cerebral artery (MCA) is performed using a modified version of the method originally developed by A. Tamura et al. (1981, J. Cerebr. Blood Flow Metab., 1:53-60). In the permanent unilateral MCA, permanent ipsilateral common carotid arteries (CCA) and transient contralateral CCA (PUM,PIC,TCC model), normotensive male Wistar rats are anesthetized with a combination of ketamine (40 mg/kg, i.m.) and xylazine (4.5 mg/kg, i.m.). After exposure of the left MCA via the subtemporal approach, a 2 mm section of the artery is electrocauterized and severed. Within 5 minutes, both CCA are exposed and occluded. […]
The contralateral temporary CCA occlusion reduces collateral flow sufficiently to allow for consistent, large cortical infarcts (S. Brint et al., 1988, Cerebr. Blood Flow Metab., 8:474-485). […] Animals are maintained throughout at 37° C. and monitored by means of a rectal probe. At 24 hours after the occlusion, animals are sacrificed and brains are removed and evaluated by triphenyltetrazolium chloride (TTC) staining to determine the area of infarct. Brain slices are photographed and infarct volumes determined with the assistance of computerized image analysis. Data are analyzed using ANOVAs and appropriate post-hoc tests (Dunnett's).

[10] = teratogenicity in rabbits; assay type: in vivo
Protocol: as §3

[11] = tested on: Ca^2+-activated chloride (Cl^−) channels (native oocyte channels); assay: ion channel specificity, Cl- currents (electrophysiology); assay type: cell-based, Xenopus; details: native oocyte Ca2+-activated Cl- channels
Protocol: as §1

teratogenicity in rats = assay type: in vivo
Protocol: as §3

[12] = cardiovascular safety in anesthetized and conscious dogs; assay type: in vivo; details: doses at least 3× higher than 1 mg/kg IV
Protocol: as §3

dopamine D3 receptor = target: T3, dopamine D3 receptor (Homo sapiens, UniProt P35462); assay: [3H]spiperone binding, PanLabs screen; details: initial test
T3 construct: PanLabs (contract screen)
Excerpt: as §2

T1 sequence (Q12791 1-1178 isoform Q12791-5): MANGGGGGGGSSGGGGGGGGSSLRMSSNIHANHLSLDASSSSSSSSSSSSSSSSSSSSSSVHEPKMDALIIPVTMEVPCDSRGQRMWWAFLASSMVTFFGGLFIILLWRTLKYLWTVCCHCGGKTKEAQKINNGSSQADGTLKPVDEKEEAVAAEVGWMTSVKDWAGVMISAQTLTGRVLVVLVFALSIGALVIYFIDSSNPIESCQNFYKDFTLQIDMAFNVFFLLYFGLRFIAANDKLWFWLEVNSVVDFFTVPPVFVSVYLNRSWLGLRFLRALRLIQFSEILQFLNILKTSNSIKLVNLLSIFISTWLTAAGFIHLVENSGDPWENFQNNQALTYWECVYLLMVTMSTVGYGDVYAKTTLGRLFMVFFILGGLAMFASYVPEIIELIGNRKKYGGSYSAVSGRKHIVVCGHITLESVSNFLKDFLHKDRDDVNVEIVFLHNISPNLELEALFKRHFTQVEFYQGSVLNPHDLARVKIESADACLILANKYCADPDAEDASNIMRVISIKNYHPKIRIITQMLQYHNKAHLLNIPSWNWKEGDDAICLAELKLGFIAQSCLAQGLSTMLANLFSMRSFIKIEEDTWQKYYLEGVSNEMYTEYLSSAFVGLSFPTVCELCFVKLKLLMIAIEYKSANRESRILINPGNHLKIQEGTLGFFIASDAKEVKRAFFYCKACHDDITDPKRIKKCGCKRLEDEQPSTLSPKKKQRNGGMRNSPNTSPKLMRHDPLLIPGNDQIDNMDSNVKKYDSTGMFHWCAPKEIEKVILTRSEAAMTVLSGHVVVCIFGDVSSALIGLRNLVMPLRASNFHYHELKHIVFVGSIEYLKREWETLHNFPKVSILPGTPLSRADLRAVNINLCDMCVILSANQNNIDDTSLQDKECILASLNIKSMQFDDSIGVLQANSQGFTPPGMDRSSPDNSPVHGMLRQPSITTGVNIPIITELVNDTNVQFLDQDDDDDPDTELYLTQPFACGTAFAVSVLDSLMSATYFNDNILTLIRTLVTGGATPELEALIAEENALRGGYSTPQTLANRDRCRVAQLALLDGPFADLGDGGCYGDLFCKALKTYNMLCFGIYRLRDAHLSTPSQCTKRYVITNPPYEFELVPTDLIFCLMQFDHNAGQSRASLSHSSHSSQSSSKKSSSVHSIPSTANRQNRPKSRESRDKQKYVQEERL
T2 sequence (Q99720 whole entry): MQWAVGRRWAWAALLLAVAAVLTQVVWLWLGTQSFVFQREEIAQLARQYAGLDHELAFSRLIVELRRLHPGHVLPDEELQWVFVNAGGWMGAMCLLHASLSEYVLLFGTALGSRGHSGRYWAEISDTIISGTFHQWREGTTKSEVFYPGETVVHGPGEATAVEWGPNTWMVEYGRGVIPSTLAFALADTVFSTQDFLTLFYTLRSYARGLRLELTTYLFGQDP
T3 sequence (P35462 whole entry): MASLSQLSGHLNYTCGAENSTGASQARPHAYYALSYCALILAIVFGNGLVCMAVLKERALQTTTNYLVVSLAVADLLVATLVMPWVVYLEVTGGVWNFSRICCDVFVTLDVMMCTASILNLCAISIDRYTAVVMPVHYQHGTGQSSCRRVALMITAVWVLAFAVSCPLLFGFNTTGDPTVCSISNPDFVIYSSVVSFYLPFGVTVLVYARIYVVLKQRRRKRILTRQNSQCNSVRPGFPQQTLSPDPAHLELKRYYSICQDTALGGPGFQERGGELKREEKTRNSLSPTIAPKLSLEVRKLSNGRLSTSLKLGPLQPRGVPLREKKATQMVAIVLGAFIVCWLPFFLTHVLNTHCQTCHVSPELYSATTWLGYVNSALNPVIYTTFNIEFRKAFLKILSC

**Q.** With CCc1cccc(N(C)C(N)=Nc2cccc3ccccc23)c1 [CNS-1102] as the compound, how does the neuroprotection (cortical infarct volume [1]) read?
**A.** Its neuroprotection is “ineffective”.

**Q.** For COc1ccc(Cl)cc1C1(Cl)C(=O)Nc2cc(C(F)(F)F)ccc21 (racemic) [BMS-225113, (±)-(5-chloro-2-methoxyphenyl)1,3-dihydro-3-chloro-6-(trifluoromethyl)-2H-indol-2-one], which “effect on hSlo-mediated currents” value ([2]; compound 5 μM, [Ca2+]i 50 nM, 250 nM, 1 μM or 2.5 μM) is on record?
**A.** Its value is “significant increases only at the highest concentrations of Ca^2+ (1 μM and 2.5 μM)”.

**Q.** And the “effect on maxi-K currents” value ([2]; compound 10 μM, [Ca2+]i 250 nM, 1.0 μM, 2.5 μM (FIG. 3A))?
**A.** Its value is “greater increases in maxi-K currents under conditions of higher [Ca^2+]i”.

**Q.** Which “effect on hSlo-mediated current amplitudes” value ([2]; [Ca2+]i 50 nM) does the source give for O=c1[nH]c2cc(C(F)(F)F)ccc2n1-c1cc(C(F)(F)F)ccc1O [NS-1619, reference compound] here?
**A.** Its value is “increasing the hS/omediated current amplitudes at upper voltages”.

**Q.** And the “effect on hSlo-mediated current amplitudes” value ([2]; [Ca2+]i 2.5 μM)?
**A.** The value was “increasing the hS/omediated current amplitudes at upper voltages”.

**Q.** For COc1ccc(Cl)cc1C1(F)C(=O)Nc2cc(C(F)(F)F)ccc21 (racemic) [Compound 1, (±)-(5-Chloro-2-methoxyphenyl)-1,3-dihydro-3-fluoro-6-(trifluoromethyl)-2H-indol-2-one], which “cortical infarct volume (MRI)” value (cortical infarct volume [3]) is on record?
**A.** Its value is “significant reduction in cortical infarct volume”.

**Q.** Which results are given for COc1ccc(Cl)cc1[C@]1(F)C(=O)Nc2cc(C(F)(F)F)ccc21 [BMS-204352, (3S)-(+)-(5-Chloro-2-methoxyphenyl)-1,3-dihydro-3-fluoro-6-(trifluoromethyl)-2H-indol-2-one]?
**A.** effect on Kv currents [4]: no significant effect; reduction of native Ca2+ current [5]: 15-16%; Tmax ([6]; 5 mg/kg, rat brain, IV administration): 15 min; Cmax ([6]; brain, rat, 5 mg/kg IV bolus dose): > 10000 ng/g; brain half life ([6]; rat, IV): 114 min; plasma half life ([6]; rat, IV): 96 min; ratio of brain to plasma of the total compound detected ([6]; rat, over an 8 hour period): 9.6; inhibition at 10 µM (σ1): 54%; genotoxicity [7]: not genotoxic; heart rate and mean arterial blood pressure [8]: unaffected; maximum reduction of cortical infarct volume (cortical infarct volume [9]): 41%; typical reductions of cortical infarct volume (cortical infarct volume [9]): 20-30%; teratogenicity [10]: not teratogenic; effect on Cl- currents [11]: no significant effect; teratogenicity (teratogenicity in rats): not teratogenic; heart rate and mean arterial blood pressure [12]: unaffected; inhibition at 10 µM (dopamine D3 receptor): 74%

**Q.** Which “effect on hSlo-mediated current amplitudes” value ([2]; [Ca2+]i 50 nM) does the source give for O=c1oc(-c2ccc(C(F)(F)F)cc2)nn1Cc1cc(Cl)ccc1O [BMS-A, 3-[(5-chloro-2-hydroxyphenyl)methyl]-5-[4-(trifluoromethyl)phenyl]-1,3,4-oxadiazol-2-(3H)-one] here?
**A.** The value was “decreased current amplitudes over a wide range of voltages”.

**Q.** And the “effect on hSlo-mediated current amplitudes” value ([2]; [Ca2+]i 2.5 μM)?
**A.** The value was “increased hSlo-mediated current amplitudes at the highest voltages”.

**Q.** For C[C@]12N[C@H](Cc3ccccc31)c1ccccc12 [MK-801], which neuroprotection (cortical infarct volume [1]) is on record?
**A.** Its neuroprotection is “ineffective”.
